The results in this text go back to US20210106703A1, “RADIOIMMUNOCONJUGATES IN COMBINATION WITH OTHER DRUGS AS TREATMENT AGAINST NHL” (Nordic Nanovector ASA, priority 2017, published 2021).

Assay in all cases: Alamar Blue cytotoxicity study
In general terms: Alamar Blue is a resazurin reagent that responds to reducing activity.

One assay deals with SUDHL4 cells. The class given is cell-based, human. Particulars: for IC50: Homo sapiens. As for the experimental part:
Cells were incubated with 0.25, 0.5, 1, 2.5 or 5 μg/ml of Humalutin in cell culture flasks and incubated at 37° C./5% CO2. After 18-20 hours cells were washed and resuspended in fresh medium. Cell bound activity after washing was measured using a calibrated gamma detector (Cobra II auto-gamma detector, Packard Instrument Company, Meriden, Conn., USA). Cell concentration and viability was also measured after washing using Guava ViaCount Cell Dispersal Reagent for Flow Cytometry (Merck GaA, Darmstadt, Germany) and measured in a Guava EasyCyte 12HT (Merck KGaA, Darmstadt, Germany) to determine how well the cells survived the incubation. Cells were seeded in 96 well plates. […]
Cells were treated with either Humalutin, venetoclax or a combination of both and seeded into 96 well-plates. At each time point after treatment, cells were incubated with Alamar Blue (Thermo Fisher, DALL1100) for 4 hours and fluorescence measurements were performed using a multiplate reader Fluoroskan ascent FL to assess cell proliferation and viability. All experiments were done in duplicates using 2 samples in each experiment. Data were normalized to the untreated controls.
Cells were incubated with either 0, 0.5 μg/ml or 1 μg/ml Humalutin and the same procedure as described before for treatment with Humalutin alone and venetoclax alone was followed.
The Chou-Talalay model was used for synergy calculations using the Compusyn software. R (goodness of fit) was calculated for the individual treatments and should be over 0.90 in in vitro culture experiments in order to use with confidence the calculated combination index (CI). The CI is an indication of synergy: 0-0.9 is considered synergy. Synergysm grading was used as described in WO2006004917A2.
(§1) Cells were incubated with 0.25, 0.5, 1, 2.5 or 5 μg/ml of Humalutin in cell culture flasks and incubated at 37° C./5% CO2. After 18-20 hours cells were washed and resuspended in fresh medium. Cell bound activity after washing was measured using a calibrated gamma detector (Cobra II auto-gamma detector, Packard Instrument Company, Meriden, Conn., USA). Cell concentration and viability were also measured after washing using Guava ViaCount Cell Dispersal Reagent for Flow Cytometry (Merck GaA, Darmstadt, Germany) and measured in a Guava EasyCyte 12HT (Merck KGaA, Darmstadt, Germany) to determine how well the cells survived the incubation. Cells were seeded in 96 well plates. Alamar blue viability measurements were performed 120 h after seeding.
(§2) Cells were incubated with either 0 (control), 0.5 μg/ml or 1 μg/ml Humalutin for 18 to 20 hours. Cells were then washed and resuspended in fresh medium.

The test system of the next assay is U2932 cells. The class given is cell-based, human. Particulars: for IC50: Homo sapiens. As for the experimental part:
(§3) Cells were treated with either Humalutin, olaparib or a combination of both and seeded into 96 well-plates. At each time point after treatment, cells were incubated with Alamar Blue (Thermo Fisher, DALL1100) for 4 hours and fluorescence measurements were performed using a multiplate reader Fluoroskan ascent FL to assess cell proliferation and viability. All experiments were done in duplicates using 2 samples in each experiment. Data were normalized to the untreated controls.
(§4) Cells were incubated with 0.25, 0.5, 1, 2.5 or 5 μg/ml of Humalutin in cell culture flasks and incubated at 37° C./5% CO2. After 18-20 hours cells were washed and resuspended in fresh medium. Cell bound activity after washing was measured using a calibrated gamma detector (Cobra II auto-gamma detector, Packard Instrument Company, Meriden, Conn., USA). Cell concentration and viability was also measured after washing using Guava ViaCount Cell Dispersal Reagent for Flow Cytometry (Merck GaA, Darmstadt, Germany) and measured in a Guava EasyCyte 12HT (Merck KGaA, Darmstadt, Germany) to determine how well the cells survived the incubation. Cells were seeded in 96 well plates.
(§5) Cells were seeded in 96 well plates pre-coated with from 1 to 100 μM olaparib in 0.2 ml medium and incubated at 37° C./5% CO2 for 72 hours before the cytotoxic effect was measured using alamar blue cell viability assay.
(§6) Cells were incubated with either 0, 0.5 μg/ml or 1 μg/ml Humalutin and the same procedure as described before for treatment with humalutin alone and olaparib alone was followed. Concentrations of olaparib used were between 1 and 100 μM.
(§7) The Chou-Talalay model was used for synergy calculations using the Compusyn software. R (goodness of fit) was calculated for the individual treatments and should be over 0.90 in in vitro culture experiments in order to use the calculated combination index (CI). The CI is an indication of synergy: 0-0.9 is considered synergy. Synergysm grading was used as described in WO2006004917A2. […]
as §1, §2

Another assay deals with DOHH2 cells. It counts as cell-based, human. Particulars: for Combination Index (Chou-Talalay): 120 h; for IC50: Homo sapiens. As for the experimental part: as §3, §4, §5, §6, §7, §1
A further assay has as its system Granta 519 cells. It counts as cell-based, human. The settings on record: for Combination Index (Chou-Talalay): Granta, 120 h; for IC50: Homo sapiens. How it is done: as §3, §4, §5, §6, §7, §1
The next assay deals with Rec-1 cells. It counts as cell-based. The settings on record: Homo sapiens, Rec1; Rec-1, 72 h incubation after seeding. How it is done:
as §3, §4
(§8) Cells were seeded in 96 well plates pre-coated with from 1 to 100 μM olaparib in 0.2 ml medium and incubated at 37° C./5% CO2 for 72 hours before the cytotoxic effect was measured using alamar blue cell viability assay. […]

Another assay deals with WSU-DLCL2 cells. The class given is cell-based. Particulars: Homo sapiens, WSUDLCL2; WSU-DLCL2, 72 h incubation after seeding. As for the experimental part: as §3, §4, §8

Read-outs that look alike come from different tables or passages of the source.

Turning to `O=C(c1cc(Cc2n[nH]c(=O)c3ccccc23)ccc1F)N1CCN(C(=O)C2CC2)CC1` [olaparib], the IC50 (usually the concentration at which inhibition is half-maximal) worked out at 22100 nM in the assay on SUDHL4 cells (SU-DHL-4, read-out: IC50 at 120 h, SUDHL-4, 120 h incubation after seeding); 1040 nM in the assay on SUDHL4 cells (SU-DHL-4, SUDHL4, 72 h incubation after seeding, read-out: IC50); 89100 nM in the assay on U2932 cells (read-out: IC50 at 120 h, U2932, 120 h incubation after seeding); 1930 nM in the assay with U2932 cells (U2932, 72 h incubation after seeding, read-out: IC50); 7560 nM in the assay on DOHH2 cells (DOHH-2, read-out: IC50 at 120 h, DOHH2, 120 h incubation after seeding); 2060 nM in the assay with DOHH2 cells (DOHH-2, DOHH2, 72 h incubation after seeding, read-out: IC50). Also, the IC50 with Granta 519 cells (read-out: IC50 at 120 h, Granta 519, 120 h incubation after seeding) came out at 15000 nM; in the assay with Granta 519 cells (Granta 519, 72 h incubation after seeding, read-out: IC50), 2680 nM; in the assay on Rec-1 cells, 721 nM; with WSU-DLCL2 cells, 1260 nM. For the same molecule, the “Synergism grade by Combination Index, combination with Humalutin” value in the assay on SUDHL4 cells (SUDHL4, Humalutin 0.5 or 1 μg/ml, 72 h) is on record as “moderate antagonism”; in the assay on U2932 cells (U2932, Humalutin 0.5 or 1 μg/ml, 72 h), “very strong synergism”; in the assay with Granta 519 cells (Granta 519, Humalutin 0.5 or 1 μg/ml, 72 h), “very strong synergism”. The “Combination Index (Chou-Talalay)” value in the assay on DOHH2 cells (DOHH2, olaparib dose 2 + Humalutin 1 μg/ml) amounted to 1.34; with DOHH2 cells (DOHH2, olaparib dose 4 + Humalutin 1 μg/ml), 0.64; in the assay with DOHH2 cells (DOHH2, olaparib dose 8 + Humalutin 1 μg/ml), 0.43; in the assay on DOHH2 cells (DOHH2, olaparib dose 10 + Humalutin 1 μg/ml) it was 0.34; in the assay with Granta 519 cells (olaparib dose 2 + Humalutin 1 μg/ml) it was 1.77; with Granta 519 cells (olaparib dose 4 + Humalutin 1 μg/ml), 0.15. Moreover, the “Combination Index (Chou-Talalay)” value was found to be 0.06 in the assay on Granta 519 cells (olaparib dose 8 + Humalutin 1 μg/ml) and 0.10 in the assay on Granta 519 cells (olaparib dose 10 + Humalutin 1 μg/ml).
